# pEC50, pIC50: −log10 of the molar value. “And” between values parts separate entries of the source, which are not always exact repeats. Equal entries are not always repeated. The source made the active and inactive calls.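 The calls were made as follows: active = compounds giving half or more protection of infected cells from virus-caused growth loss, again on retest; inactive = the rest.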 Where a SMILES comes first, the peptide text is derived from it. [ ]: non-standard residue; d: D form. The star is where a group is joined. hSer = N[CH](CCO)C(=O)O; Boc = CC(C)(C)OC(=O)*
# Tested on: CEM cells HIV-1 protection, formazan growth assay
# Experiment: NCI AIDS Antiviral Assay
# Details: for pIC50: measured here: growth of uninfected CEM cells
# In short: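 Human CEM cells, uninfected and HIV-1-infected, exposed to five drug concentrations; growth measured by soluble formazan assay and scored as percent protection from infection, with protecting compounds retested.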
SMILES,pEC50,pIC50,outcome
COC(=O)C1C2C/C(=N\O)C1C2 (centres undefined),< 3.30,< 3.30,–
O=C1[C@@H](O)[C@@H]2CCCC[C@@]23CCCN13,< 3.70,< 3.70,–
C/C(O)=C/c1nc2sc(C)c(C)c2c(=O)s1,< 3.70,4.40,–
CC(=O)OCC1OC(n2c(C)cc(-c3cccc4ccccc34)c(C#N)c2=S)C(OC(C)=O)C(OC(C)=O)C1OC(C)=O (centres undefined),< 3.70,4.67,–
Cc1ccc(S(=O)(=O)N/N=C2/C3CCC(C3)C2c2ccccc2)cc1 (centres undefined),< 3.70,< 3.70,–
COc1ccc(C2=C/C(=C/c3ccc(O)cc3O)C(=O)O2)cc1,< 3.70,4.44,–
NS(=O)(=O)c1ccc(CNC(=O)c2ccccc2SC(=O)CCCC[n+]2ccccc2)cc1,5.86 and 6.12,4.55 and 4.93,–
O=C(N/N=C/c1cc(Cl)cc(Cl)c1[OH2+])c1ccncc1.O=S(=O)([O-])[O-].[Fe+2],–,–,inactive
Clc1nc(Nc2nc3ccccc3[nH]2)nc(Cl)c1-c1ccccc1,–,–,inactive
CS(=O)(=O)NOCCCCONS(C)(=O)=O,< 3.04,< 3.04,–
CC(C)N(CN1C(=O)N/C(=C/c2cccc(/C=C3/NC(=O)N(CN(C(C)C)C(C)C)C3=O)c2)C1=O)C(C)C,< 3.30,4.12,–
CCOC(=O)N/N=C(\Cc1ccccc1)OCC,< 3.70,< 3.70,–
CC#CCCN(CC#N)Cc1ccccc1,< 3.70,< 3.70,–
CCN(CC)C(=O)C/C(C)=N/NC(=O)c1ccncc1,< 4.03,< 4.03,–
CSc1ccc(NC(=O)Nc2cccc(C)n2)cc1,< 3.70,< 3.70,–
COc1ccc(/C=N/N/C(O)=c2/sc(=C(C#N)C#N)n(-c3ccccc3)c2=N)cc1,< 5.04,< 5.04,–
CCCCCCCCCCCCCCCC[N+](C)(C)Cc1ccccc1,< 3.70,5.48,–
COC1C(/C(=N\O)n2cnc3c(Cl)ncnc32)OC2OC(C)(C)OC21 (centres undefined),< 3.70,< 4.00,–
CCOC(=O)[C@H]1Nc2ccc(Cl)cc2[C@H]2OCC[C@@H]12,< 3.75,< 3.75,–
CCOP(=O)(OCC)C(C(=O)OC)C(=O)C(=O)Nc1ccc(Cl)cc1Cl (centres undefined),< 4.21,< 4.21,–
Cc1c2ccccc2nc(CSc2ccccc2N)[n+]1[O-],4.19,< 3.70,–
COc1ccc2cc1Oc1ccc(cc1)C[C@@H]1c3cc(c(OC)cc3CCN1C)Oc1c(OC)c(OC)cc3c1[C@H](C2)N(C)CC3,–,–,inactive
Nc1nc(F)nc2c1ncn2CC(O)CO (centres undefined),< 2.96,5.75,–

SMILES,pEC50,pIC50,outcome
Cc1cn([C@H]2[C@@H](CO)C[C@H]2O)c(=O)[nH]c1=O,< 3.70,< 3.70,–
COc1cccc(C2Nc3ccccc3C(=O)N2N2CCOCC2)c1 (centres undefined),< 3.70,< 3.70,–
CSCCC(NC(=O)c1ccccc1C(=O)O)C(=O)O (centres undefined),< 3.70,< 3.70,–
C=C1C(C(=O)OC)[C@@]2(C)C(C(=O)OC)C(=O)C(C(=O)OC)[C@@]2(CCC)C1C(=O)OC (some centres undefined),< 3.85,4.14,–
C=CNC(=S)N/C=C(\C#N)S(=O)(=O)c1ccc(C)cc1,< 3.70,< 3.70,–
O=C(c1ccccc1)c1ccc(C(=O)c2ccccc2)cc1,< 5.30,< 5.30,–
O=C1CN(CCN2CCOCC2)CC(=O)N2CCCCN12,< 3.70,< 3.70,–
O=C1CC(=O)NC(=NNS(=O)(=O)c2ccc(Cl)cc2)N1,< 3.70,< 3.70,–
COc1cc(SSc2cc(OC)c(OC)cc2C(=O)N2CSC[C@H]2C(=O)O)c(C(=O)N2CSC[C@@H]2C(=O)O)cc1OC,< 3.70,< 3.70,–
N=C1C(=N)c2ccccc2-c2ccccc21.[Cl-].[Rh+3].c1cnc2c(c1)ccc1cccnc12.c1cnc2c(c1)ccc1cccnc12,–,–,inactive
CC(=O)[C@H]1CC[C@@H]2[C@]1(C)CC=C1[C@]23C=C[C@]2(C[C@@H](O)CC[C@]12C)C(C(=O)O)C3C(=O)O (some centres undefined),–,–,inactive
Cc1noc(/N=C2\C=C(Nc3onc(C)c3C)C(=O)c3ccccc32)c1C,< 5.56,< 5.56,–
O=C(O)c1ccccc1SSC(=S)N1CCOCC1,< 7.70,9.12,–
O=C(NC(=Nc1ccccc1)SCSC(=Nc1ccccc1)NC(=O)c1ccc(Cl)cc1)c1ccc(Cl)cc1,< 4.00,< 4.00,–
Cc1ccc(C2(C)CC(C)(C)c3ccc(C)cc3O2)c(O)c1 (centres undefined),< 3.70,4.69,–
OCc1ccc2ccc3ccc(CO)nc3c2n1,< 3.41,3.58,–
NC1(CCCCCCCCCCC(=O)O)CNCCNCCNCCNC1,< 3.36,5.46,–
N#CNC1=NC(N)C(c2nc3ccccc3[nH]2)=C(CCCC(=O)Nc2cccc([N+](=O)[O-])c2)N1 (centres undefined),< 4.11,< 4.11,–
CCOc1ccc2nc3nc(=O)[nH]c(C)c3c(NCCCN(CC)CC)c2c1,< 3.70,< 3.70,–
O=C1Nc2c(ccc(Cl)c2I)C1=O,< 3.79,4.51,–
CCCCCCCCCCC(O)CCCCCCC(=O)O (centres undefined),–,–,inactive
O=c1ccc(=O)n(-c2ccc(Cl)cc2)[nH]1,< 3.79,< 3.79,–
CCOc1ccc(NC(=O)/C(=N\N)C(C(=O)OC)c2nc3ccc(Cl)cc3[nH]c2=O)cc1 (centres undefined),< 4.41,< 4.41,–

SMILES,pEC50,pIC50,outcome
CCCc1cc(=O)oc2c3c(c4c(c12)OC(C)(C)CC4)O[C@H](C)[C@@H](C)[C@@H]3O,6.50,5.09,–
[N-]=[N+]=CC(=O)CCC(=O)N(c1ccccc1)c1ccccc1,3.87,3.71,–
Cc1nc2c(Cl)cc(Cl)cc2c(Cl)c1CCCl,< 3.70,< 3.70,–
CCSC(=O)/C=C1\CN(C(=O)OC(C)(C)C)C1C(=O)OC(C)(C)C (centres undefined),< 3.70,5.96,–
O=C(O)c1ccc2c(c1)C(=O)N(c1ccc(S(=O)(=O)c3ccc(N4C(=O)c5ccc(C(=O)O)cc5C4=O)cc3)cc1)C2=O,–,–,inactive
COc1ccc(N2C(N)=C(C#N)C(C#N)(C#N)C2c2cccc([N+](=O)[O-])c2)cc1 (centres undefined),< 3.70,5.23,–
COC(=O)c1cc2c(c(C(=O)OC)c1)CCC2,< 3.70,4.39,–
BrC(Br)=C1C(=C(Br)Br)C(Br)C1Br (centres undefined),–,–,inactive
O=C(Cn1c2ccc(Br)cc2c2nc3ccccc3nc21)N1CCOCC1,< 4.00,< 4.00,–
COc1cc2c(c(OC)c1OC)C(=O)[C@@H](O)[C@H]2N,< 3.70,< 4.00,–
FC(F)(F)C12C34C=CC5(CCC6(C=CC1(CC3)O6)C52C(F)(F)F)O4 (centres undefined),–,–,inactive
NCC#CCNCCCN1CC1,< 3.70,< 3.70,–
COc1ccc(-c2c(C(C)=O)c(-c3ccccc3)n(C3OC(CO)C(O)C(O)C3O)c(=S)c2C#N)cc1 (centres undefined),< 3.70,< 3.70,–
CC1=C2c3ccccc3N(S(=O)(=O)c3ccccc3)[C@H]2[C@H](C(=O)N2C3CC4CC[C@@]3(CS2(=O)=O)C4(C)C)CC1 (some centres undefined),5.28,4.73,–
O=C(Oc1ccccc1C(=O)O)c1ccccc1O,< 3.70,< 3.70,–
O=C(Cc1ccccc1)NNc1nc(NNC(=O)c2ccncc2)nc(Nc2ccccc2)n1,< 3.70,< 3.70,–
O=c1[nH]c(Nc2cc(Cl)cc(Cl)c2)nc2nc[nH]c12,< 3.70,< 3.70,–
CC(=O)NC1(C)C(C)C2CC1C(C)C2(C)C (centres undefined),< 4.07,< 4.07,–
COc1ccccc1NC(=O)C(=O)C1C(=O)Nc2ccccc2S1=O (centres undefined),–,–,inactive
COc1ccc(-c2cc(-c3ccc(Cl)cc3)n(C3OC(CO)C(O)C(O)C3O)c(=S)c2C#N)cc1 (centres undefined),< 3.70,5.11,–
Clc1cc(Cl)c(OCC#CI)cc1Cl,< 3.70,5.16,–
COCCC(NC(=O)C(CC(C)C)NC(=O)OC(C)(C)C)C(=O)OC (stereo not drawn) (Boc-Leu-[hSer](Me)-OMe; configuration not given here),< 3.70,4.57,–
O=C(/C=C/c1ccc2c(c1)OCO2)NCCc1ccco1,< 3.70,3.90,–

SMILES,pEC50,pIC50,outcome
ClC(Cl)[Si]12OCCN(CCO1)CCO2,–,–,inactive
OC12CCC3(O)c4ccccc4C3C1c1ccccc12 (centres undefined),< 3.70,< 3.70,–
Nc1nc2c(s1)CCC2,< 3.15,5.25,–
CCc1n[nH]c(CC)c1CCCCCCOc1ccc(OC)cc1Cl,< 3.70,5.01 and 5.00,–
O=C(ON=C1c2ccccc2C(Br)C(Br)c2ccccc21)c1ccccc1 (centres undefined),< 3.70,5.48,–
Cc1cn(C2CC(O)C(COC(=O)CCCCCCCCCCCN=[N+]=[N-])O2)c(=O)[nH]c1=O (centres undefined),5.00,4.67,–
CCCCC1(C(=O)OCC)SCCCS1,< 4.12,< 4.12,–
C/C(=N\N=C(N)N)c1sc(-c2nc(C)c(/C(C)=N/N=C(N)N)s2)nc1C,< 3.90,< 3.90,–
c1ccc(-c2cc(=[N+]3CCOCC3)c3ccccc3o2)cc1,–,–,inactive
CS(=O)(=O)OCCN(CCOS(C)(=O)=O)c1ccc(C=Nc2ccc3oc(=O)ccc3c2)cc1,< 3.87,5.99,–
CC[n+]1c(/C=C/c2ccc(N(CCCl)CCCl)cc2)ccc2cc(Br)ccc21,–,–,inactive
Nc1nc(N)c(N)c(Nc2ccccc2)n1,< 3.70,4.69,–
CCCC(=O)NC(Nc1ccc(S(=O)(=O)Nc2cc(C)on2)cc1)(C(=O)OCC)C(F)(F)F (centres undefined),–,–,inactive
NC1=NN(c2ccccc2)C(=O)/C1=C\n1c(=S)[nH]c2ccccc21,< 3.70,< 3.70,–
Cn1c2ccccc2c(=O)c2c(O)cc3c(c21)C=CC1(CCCCC1)O3,< 3.70,< 3.70,–
CC(=O)OCCOCn1c2c(c(=O)[nH]c1=O)CCC2,< 3.70,< 3.70,–
CCOC(=O)/C(=C\c1ccc(C(F)(F)F)cc1)[Se]c1ccccc1,< 4.74,< 4.74,–
CCCc1cc(=O)oc2c(C=O)c(O)cc(O)c12,< 3.70,4.20,–
COC(Cc1ccccc1)NC(C)=O (centres undefined),< 3.70,3.73,–
OC1C2CCCCN2C[C@@H](O)[C@H]1O (some centres undefined),< 3.70,< 3.70,–

# Reference: PubChem BioAssay AID179 (DTP/NCI, 2004)
